Test results as given in US11033572B2, “Molecular adjuvants for enhanced cytosolic delivery of active agents” (Universiteit Gent, priority 2017, dated 2021).

Columns and labels:
Assay type in all cases: cell-based
[1] = test system: H1299_WT cells; assay: Release of FITC-dextrans into the cytosol (confocal microscopy); conditions: 40 μM, 20 h, 10 kDa FITC-dextran; listed as DL
Procedure: (§1) To visualize the FITC-dextran release, a 1 mg/mL dispersion of 10 kDa FITC-dextrans (Sigma-Aldrich, Belgium) in complete cell medium was added during 1 hour at 37° C. in a humidified atmosphere containing 5% CO2. To assess oligonucleotide escape, the NGs were first loaded with 100 nM Alexa Fluor 647-labeled oligonucleotides (21-mer) (Eurogentec, Belgium) according to the procedure described for siRNA complexation. Of note, these oligonucleotides transfer to the nucleus upon release into the cytosol (Rehman et al., ACS Nano, 2013). Following four hours of NG transfection or 1 h incubation with FITC-dextrans, the cells were washed with PBS and received 1.5 mL fresh cell medium with or without 10, 20 or 40 μM DL. After an additional incubation period of 20 hours, the cell medium was removed and nuclei were labeled with Hoechst (Molecular Probes™, Belgium) in cell medium during 15 minutes at 37° C. […]
(§2) The samples were imaged using a laser scanning confocal microscope (LSCM, C1si, Nikon) and a 60× oil immersion Plan Apo objective (Nikon, Belgium). […] During data analysis with the ImageJ image processing software (NIH) both the total cell number and amount of cells with a diffuse FITC-dextran labeling or oligonucleotide-positive nuclei were counted. […]

[2] = test system: H1299_WT cells; assay: Phospholipidosis detection with LipidTOX Red; conditions: 20 h incubation
Procedure: H1299_WT cells were seeded and allowed to settle overnight as detailed previously. Next, the cells were incubated with a mixture of a 1/1000 dilution of the LipidTOX™ red phospholipidosis detection reagent (Thermo Fisher Scientific, USA) and the desired CAD in complete cell medium. Upon 20 hour incubation, the cells were fixed with 4% PFA and stored at 4° C. covered in Vectashield antifade mounting medium containing DAPI. Imaging occurred with a LSCM and a 100× oil immersion objective. DAPI and the LipidTOX™ red phospholipidosis dye were respectively excited with the 408 nm and 561 nm laser lines and the signal intensity was determined with Image J in minimum 30 cells from 5 images per condition.

[3] = test system: H1299_eGFP cells; assay: siNG transfection and sequential adjuvant treatment, eGFP silencing by flow cytometry
[4] = test system: H1299_WT cells; assay: Release of NG-delivered labeled oligonucleotides into the cytosol (positive nuclei); conditions: 40 μM, 20 h, after NG transfection; listed as DL
Procedure: as §1, §2

[5] = test system: H1299_eGFP cells; assay: siPLK1-NG silencing evaluated through cell viability (CellTiter GLO)
Procedure: The silencing potential of siPLK1-NGs was established through evaluating the cell viability. Hereto, we applied the CellTiter GLO® assay (Promega, Belgium) according to the manufacturer's guidelines. Before initiating the assay, the culture plates and reconstituted assay buffer were placed at room temperature for 30 minutes. Next, the culture medium was replaced by 250 μL fresh cell medium and an equal volume of assay buffer was added. To induce complete cell lysis, the plates were shaken during 2 minutes and the signal was allowed to stabilize the following 10 minutes. 100 μL from each well was subsequently transferred to an opaque 96-well plate, which was measured with a GloMax® 96 Microplate Luminometer (Promega, Belgium). Three biological replicates were performed and data are expressed as the mean cell viability±SEM.
All previous experiments were performed on the eGFP reporter gene. To evaluate whether our approach also works in a therapeutic setting we applied siRNA against Polo Like Kinase 1 (PLK1). […] To evaluate the PLK1 silencing we evaluated the effect on cell viability since both induction of cell cycle arrest or apoptosis would reduce the number of cells present compared to the untreated control.

[6] = test system: H1299_eGFP cells; assay: Transfection with Lipofectamine RNAiMAX or DOTAP-DOPE liposomes, with or without desloratadine, eGFP silencing; conditions: 40 μM, 2 h
Procedure: Lipofectamine® RNAiMAX (Invitrogen, Belgium) was applied as prescribed by the manufacturer. In short, equal volumes of RNAiMAX and siRNA dilutions were mixed and allowed to complex during 5 minutes at room temperature. Transfection occurred in Opti-MEM®. According to the guidelines, 5 pmol siRNA/well was applied to obtain optimal transfection efficiencies. To allow comparison with the siNG transfection methods, the RNAiMAX lipoplexes were additionally further diluted to 0.6 pmol siRNA/well. […] Of note, a single biological replicate was performed with three technical replicates and data are represented as the mean±SEM.
DOTAP (2,3-dioleoyloxy-propyl)-trimethylammonium)—DOPE (1,2-dioleoyl-sn-glycero-3-phosphoethanolamine) liposomes (LPS) were prepared via the lipid film hydration method. […]
For silencing experiments, H1299_eGFP cells were seeded in 24 well plates at a density of 35000 cells/well and were allowed to settle overnight. […] SiNG-mediated eGFP silencing was determined by flow cytometry. […] For each sample the forward and side scatter as well as the green fluorescent signal were measured for at least 5000 cells. The samples were excited with the 488 nm laser line and the signal was detected with the 530/30 filter using the FACSCalibur™ flow cytometer (BD Biosciences, Belgium) and BD CellQuest™ acquisition software.

Q: Which “Cells with diffuse FITC-dextran labeling” value [1] does the source give for `Clc1ccc2c(c1)CCc1cccnc1C2=C1CCNCC1` [(3) Desloratadine, Desloratadine] here?
A: The value was 26%.

Q: What about the “LipidTOX Red phospholipid signal” value [2] of the same molecule?
A: Its value is “upregulates the presence of phospholipids in a concentration dependent fashion”.

Q: And the “siNG-mediated gene silencing, 2 h versus 20 h incubation” value ([3]; incubation 2 h or 20 h)?
A: Its value is “improve siNG-mediated gene silencing to a similar extent”.

Q: What about the “adjuvant effect on siNG-mediated eGFP silencing” value ([3]; sequential treatment 10, 20 or 40 μM, 20 h, siNGs 2 nM siRNA) of the same molecule?
A: The value was “significant additional silencing”.

Q: And the Oligonucleotide positive nuclei [4]?
A: Its Oligonucleotide positive nuclei is 30%.

Q: And the cell viability ([5]; 1 nM siPLK1-NG, second 40 μM treatment)?
A: Its cell viability is roughly 50%.

Q: And the viability at 40 µM ([5]; 1 nM siPLK1-NG, single 40 μM treatment, 2 h)?
A: Its viability at 40 µM is roughly 60%.

Q: What about the “effect on cell viability reduction” value ([5]; 10 nM siPLK1-NG, single 2-hour treatment) of the same molecule?
A: The value was “maximal effect on cell viability reduction”.

Q: What about the “cytosolic siRNA delivery via cationic liposomes” value [6] of the same molecule?
A: Its value is “not able to enhance cytosolic siRNA delivery”.
